Broadly, the melting point is the temperature, or range, at which the solid turns liquid.

Values joined by “and” are separate entries in the source; they are usually repeats but may differ in a detail not shown here. Identical values can stand only once. Counter-ions that a name gives are not always drawn.

These results are taken from the Bradley open melting point set (2014).

With `Nc1cccc(CO)c1` [m-amino_benzyl_alcohol], the melting point stood at 95 °C.

`O=Cc1ccc2c(c1)OCCO2` [1,4-benzodioxane-6-carboxaldehyde] gave a melting point of 50 °C.

`O=C1/C(=C\c2ccco2)SC(=S)N1CN1CCCCC1` gave a melting point of 121 °C. `CO[C@@H]1O[C@H](CO)[C@H](O)[C@H](O)[C@H]1O` [methyl beta-d-galactopyranoside] yielded a melting point of 177 °C. In turn, `OCCc1ccccc1` [2-Phenyl-Ethanol] came in with a melting point of -27 °C.

Molecule `CCB(O)O` [ethylboronic acid] yielded a melting point of 86 °C.

For `C[C@H](CS)C(=O)N1CCC[C@H]1C(=O)O` [Captopril], the melting point is 106 °C. Under `Clc1cc(-c2cc(Cl)c(Cl)c(Cl)c2Cl)c(Cl)c(Cl)c1Cl` [PCB-194] stands 157 °C; under `CCCCCN` [1-pentylamine], -55 °C.

`CC1(C)OC(C)(C(O)(Cc2ccccc2)Cc2ccccc2)CCC1C(=O)O` (stereo not drawn) registered a melting point of 138 °C. Under `CCC(C)CC` [3-methylpentane] stands -118 °C. Next, `CCCCCCCC` [N-Octane]: -56.8 °C; `Cc1c2ccccc2cc2ccccc12` [9-Methylanthracene]: 78 °C; `O=C(/C=C/C=C/c1ccccc1)/C=C/C=C/c1ccccc1` [1,9-diphenyl-1,3,6,8-nonatetraen-5-one]: 142 °C. Next, `Clc1cc(Cl)c(Cl)cc1Cl` [1,2,4,5-Tetrachlorobenzene]: 139 °C.

Regarding `Nc1cc(Br)ccc1C(O)c1ccccc1` (stereo not drawn) [(2-amino-4-bromophenyl)(phenyl)methanol], the melting point came to 113 °C. Next, `COC(=O)CS(C)(=O)=O` [methyl methylsulfonylacetate]: 61 °C; `Oc1ccnc2ccccc12` [4-hydroxyquinoline]: 203 °C. For `N#CCCCCCCC#N` [1,6-dicyanohexane], the melting point is -3 °C.

Turning to `CN(C)C1=NC(=O)C(c2ccccc2)O1` (stereo not drawn) [thozalinone], the melting point is 133 °C.

In the case of `O=C(O)/C=C/c1cccc(B(O)O)c1` [3-(2-carboxyvinyl)benzeneboronic acid], the melting point was found to be 218 °C. As to `Nc1ncnc2c1ncn2Cc1c(F)cccc1Cl` [arprinocid], the melting point came out at 245 °C. Regarding `C=CCc1ccc(OC)c(OC)c1` [4-Allyl-1,2-dimethoxybenzene], the melting point is -4 °C. Next, `Cn1cc([N+](=O)[O-])c(O)nc1=O` [1-Methyl-5-nitropyrimidine-2,4(1H,3H)-dione]: 269 °C. In turn, `C[C@@H]1CCCC[C@@H]1O` (relative stereo) [cis-2-methylcyclohexanol] returned a melting point of 8 °C. Under `BrCC(Br)(Br)CBr` [1,2,2,3-tetrabromopropane] stands 11 °C; under `CCCCl` [1-Chloropropane], -122 °C. Under `CC=C1CCC2C3CCC4CC(OC(C)=O)CCC4(C)C3CCC12C` (stereo not drawn) [pregn-17-en-3-yl acetate] stands 119 °C. Next, `OB(O)c1ccc(Cl)cc1` [4-chlorobenzeneboronic acid]: 273 °C. For the molecule `NS(=O)(=O)c1ccc(F)c2nonc12` [7-fluorobenzofurazan-4-sulfonamide], the melting point amounted to 144 °C. Regarding `Cc1ccccc1[N+](=O)[O-]` [1-Methyl-2-nitrobenzene], the melting point was -10 °C.

As to `COc1ccccc1NC(=O)c1cnc(C(C)(C)C)c(Cl)n1`, the melting point was 119 °C.

In turn, `CC/C=C\CC` [cis-3-hexene] had a melting point of -138 °C. Next, `COC1(CBr)OC(COC(=O)c2ccc(C)cc2)C(OC(=O)c2ccc(C)cc2)C1OC(=O)c1ccc(C)cc1` (stereo not drawn): 149 °C; `O=c1cc(-c2ccc(O)c(O)c2)oc2ccccc12` [3',4'-dihydroxyflavone]: 251 °C; `O=Cc1c(F)c(F)c(F)c(F)c1F` [pentafluorobenzaldehyde]: 26 °C.

For the molecule `O=P1(N(CCCl)CCCl)NCCCO1` (stereo not drawn) [N,N-Bis(2-chloroethyl)-1,3,2-oxazaphosphinan-2-amine 2-oxide], the melting point came out at 43 °C. Next, `COc1ccc(B(O)O)c(C(F)(F)F)c1` [4-methoxy-2-(trifluoromethyl)benzeneboronic acid]: 170 °C; `Cc1cc(C)n(C)n1` [1,3,5-trimethyl-1h-pyrazole]: 36 °C; `O=C=NC1CCCCC1` [cyclohexyl isocyanate]: -80 °C. Under `Cc1ccc(-c2ccccc2)cc1` [1-methyl-4-phenylbenzene] stands 48 °C. Under `O=C(O)CCCCCCCCC(=O)O` [sebacic acid] stands 133 °C; under `CCOC(=O)CC#N` [ethyl_cyanoacetate], -22 °C. In the case of `C[C@@H](NC(=O)OC(C)(C)C)C(=O)O` [N-boc-D-alanine], the melting point was 83 °C.

As to `Oc1ccccc1C=NCCN=Cc1ccccc1O` [N,N'-bis(salicylidene)ethylenediamine], the melting point was found to be 130 °C. Under `Cc1c(Br)cccc1[N+](=O)[O-]` [2-bromo-6-nitrotoluene] stands 40 °C; under `CSC1N=NC(N)=C1C#N` (stereo not drawn) [1H-pyrazole-4-carbonitrile, 3-amino-5-(methylthio)-], 190 °C. Next, `COc1cc(C(C)=O)ccc1O` [4'-hydroxy-3'-methoxyacetophenone]: 114 °C; `Nc1ccc(Br)cc1` [p-bromoaniline]: 63 °C; `CC(=O)/C=C/c1ccccc1` [trans-4-phenyl-3-buten-2-one]: 41 °C.

In the case of `ClC1=C(Cl)C2(Cl)C3C4CC(C5OC45)C3C1(Cl)C2(Cl)Cl` (stereo not drawn) [Dieldrin], the melting point amounted to 175 °C. Under `Oc1cccc(Cl)c1` [m-chlorophenol] stands 34 °C. Under `O=Cc1cccc(C=O)c1` [Isophthalaldehyde] stands 88.8 °C. Next, `O=C(O)/C=C/c1ccccc1[N+](=O)[O-]` [trans-2-nitrocinnamic acid]: 247 °C; `C[C@]12CC[C@H](O)[C@@H](O)[C@H]1CC[C@@H]1[C@@H]2CC[C@]2(C)C(=O)CC[C@@H]12` [(3beta,4alpha,5beta)-3,4-Dihydroxyandrostan-17-one]: 221 °C; `O=C(O)c1cccnc1` [Nicotinic acid]: 237 °C.

For `O=Cc1ccc(O)c(O)c1` [3,4-dihydroxybenzaldehyde], the melting point came out at 155 °C. `O=C(O)c1sc2ccccc2c1Cl` [3-chlorobenzo[b]thiophene-2-carboxylic acid] yielded a melting point of 266 °C. Under `O=C(c1ccccc1)C(Cl)Cl` [2,2-dichloroacetophenone] stands 21 °C.

`CCCCC1(CC)C(=O)NC(=O)NC1=O` [5-butyl-5-ethylbarbituric acid] yielded a melting point of 128 °C. Under `O=C(Nc1ccccc1)Nc1nnc(C(F)(F)F)s1` [N-phenyl-N'-[5-(trifluoromethyl)-1,3,4-thiadiazol-2-yl]urea] stands 150 °C; under `Clc1cc(Cl)c(Cl)c(Cl)c1Cl` [pentachlorobenzene], 86 °C; under `C=CCC1(c2ccccc2)C(=O)NC(=O)NC1=O` [phenallymal], 156 °C.

For `O=C(O)C(F)(F)C(F)(F)C(F)(F)C(F)(F)C(F)(F)C(F)(F)F` [Tridecafluoroheptanoic acid], the melting point came to 30 °C. Under `C/C=C\CC` [cis-2-pentene] stands -151 °C; under `O=C(c1ccccc1)c1ccc(Br)cc1` [p-bromobenzophenone], 82 °C; under `O=C1c2ccccc2C(=O)c2ccccc21` [9,10-anthraquinone], 285 °C. Next, `CC(C)OC=O` [isopropyl formate]: -93 °C; `Nc1ncnc2c1ncn2[C@@H]1O[C@H](CO)[C@@H](O)[C@H]1O` [Adenosine]: 236 °C. In turn, `NCCCCN` [Butane-1,4-diamine] gave a melting point of 27.5 °C. Under `CCOS(=O)(=O)c1ccc(C)cc1` [ethyl_p-toluenesulfonate] stands 34 °C; under `c1ccc2c(c1)[nH]c1ccccc12` [carbazole], 247 °C and 243 °C.

In the case of `NCCNCCNCCNCCN`, the melting point is -40 °C. Under `O=[N+]([O-])c1ccc(OCCN2CCOCC2)cc1` [4-[2-(4-nitrophenoxy)ethyl]morpholine] stands 80 °C; under `CC(=O)NS(=O)(=O)c1ccc(N)cc1` [sulfacetamide], 183 °C. Under `Cc1ccccc1O` [o-cresol] stands 31 °C and 32 °C; under `CCOC(C)=NOc1ccc([N+](=O)[O-])cc1[N+](=O)[O-]` [ethyl n-(2,4-dinitrophenoxy)acetimidate], 112 °C; under `C[C@H](CCC(=O)O)[C@H]1CC[C@H]2[C@@H]3CC[C@@H]4C[C@H](O)CC[C@]4(C)[C@H]3C[C@H](O)[C@]12C` [deoxycholic acid], 174 °C. In turn, `CCOC(=O)[C@H](C)O` [ethyl l-lactate] came in with a melting point of -25 °C.

Turning to `Oc1ccc(-c2nccs2)cc1` [4-(2-thiazolyl)phenol], the melting point amounted to 164 °C.

`Cc1ccccc1C1C=C(c2ccccc2)N=N1` (stereo not drawn) [5-(2-methylphenyl)-3-phenyl-1H-pyrazole] came in with a melting point of 108 °C. Under `BrCCCCCBr` [1,5-dibromopentane] stands -40 °C. Next, `O=C(O)CCN1C(=O)COc2ccc(Cl)cc21`: 148 °C; `C[C@]12C/C(=C/O)C(=O)C[C@@H]1CC[C@@H]1[C@@H]2CC[C@@]2(C)[C@H]1CC[C@]2(C)O`: 179 °C; `COc1ccccc1OC` [o-dimethoxybenzene]: 15 °C. `CCC(Br)(CC)C(=O)NC(=O)NC(C)=O` [acecarbromal] returned a melting point of 109 °C. Under `CC(=O)Nc1cc(C)ccc1O` [2'-hydroxy-5'-methylacetanilide] stands 149 °C.

The molecule `OC1c2ccccc2Oc2ccccc21` [xanthydrol] showed a melting point of 124 °C.
